Laboratory results from patent US20230065799A1, “METHOD FOR ATTRIBUTING OLFACTORY TONALITIES TO OLFACTORY RECEPTOR ACTIVATION AND METHODS FOR IDENTIFYING COMPOUNDS HAVING THE ATTRIBUTED TONALITIES” (FIRMENICH SA, priority 2019, published 2023).
Where two headings read alike, the source gives them in different places. Blank lines part the entries; values can stand above or below the compound they belong to.

Key:
OR10J5 = biological target: T1, OR10J5 (Homo sapiens, UniProt Q8NHC4); experiment: OR10J5 cell-based cAMP HTRF assay; details: for Emax: read-out: OR10J5 % Efficacy
T1 construct: Lucy (cleavable signal peptide) (N); FLAG (N); Rho (first 20 aa of bovine rhodopsin) (N); expressed in transfected cells
T1 sequence (Q8NHC4 1-309): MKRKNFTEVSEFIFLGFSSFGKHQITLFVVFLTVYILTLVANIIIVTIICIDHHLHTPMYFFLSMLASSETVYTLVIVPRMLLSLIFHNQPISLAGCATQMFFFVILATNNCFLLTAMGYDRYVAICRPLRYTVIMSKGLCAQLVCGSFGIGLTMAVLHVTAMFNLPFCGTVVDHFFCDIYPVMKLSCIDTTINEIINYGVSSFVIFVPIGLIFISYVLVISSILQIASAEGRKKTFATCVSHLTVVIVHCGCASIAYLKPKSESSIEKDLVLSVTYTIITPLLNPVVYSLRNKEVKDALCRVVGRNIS

OR5AN1 = biological target: T2, OR5AN1 (Homo sapiens, UniProt Q8NGI8); experiment: OR5AN1 cell-based cAMP HTRF assay; details: for Emax: read-out: OR5AN1 % Efficacy
T2 construct: Lucy (cleavable signal peptide) (N); FLAG (N); Rho (first 20 aa of bovine rhodopsin) (N); expressed in transfected cells
T2 sequence (Q8NGI8 1-311): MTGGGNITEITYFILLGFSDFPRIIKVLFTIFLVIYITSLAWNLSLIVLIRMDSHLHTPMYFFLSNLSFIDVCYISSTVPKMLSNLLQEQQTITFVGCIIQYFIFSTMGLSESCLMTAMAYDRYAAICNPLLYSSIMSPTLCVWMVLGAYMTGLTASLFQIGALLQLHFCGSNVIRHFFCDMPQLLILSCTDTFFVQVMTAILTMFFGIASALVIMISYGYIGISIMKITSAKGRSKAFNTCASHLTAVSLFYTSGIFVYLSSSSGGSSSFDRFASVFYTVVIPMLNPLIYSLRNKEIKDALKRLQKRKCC

OR8D1 = biological target: T3, OR8D1 (Homo sapiens, UniProt Q8WZ84); experiment: OR8D1 cell-based cAMP HTRF assay; details: dose-response, 100% = full agonist; for Emax: read-out: OR8D1 % Efficacy
T3 construct: Lucy (cleavable signal peptide) (N); FLAG (N); Rho (first 20 aa of bovine rhodopsin) (N); expressed in transfected cells
T3 sequence (Q8WZ84 1-308): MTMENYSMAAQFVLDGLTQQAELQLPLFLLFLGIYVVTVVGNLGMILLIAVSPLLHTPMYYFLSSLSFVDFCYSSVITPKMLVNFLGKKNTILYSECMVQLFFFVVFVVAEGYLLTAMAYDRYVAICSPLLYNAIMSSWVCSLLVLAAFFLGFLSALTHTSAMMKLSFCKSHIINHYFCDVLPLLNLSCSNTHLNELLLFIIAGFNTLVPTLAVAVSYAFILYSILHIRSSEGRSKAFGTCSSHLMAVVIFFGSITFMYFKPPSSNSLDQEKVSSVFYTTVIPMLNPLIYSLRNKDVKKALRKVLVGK

OR1C1 = biological target: T4, OR1C1 (Homo sapiens, UniProt Q15619); experiment: OR1C1 cell-based cAMP HTRF assay; details: dose-response; 100% = full agonist; read-out: OR1C1 % Efficacy
T4 construct: Lucy (cleavable signal peptide) (N); FLAG (N); Rho (first 20 aa of bovine rhodopsin) (N); expressed in transfected cells
T4 sequence (Q15619 1-314): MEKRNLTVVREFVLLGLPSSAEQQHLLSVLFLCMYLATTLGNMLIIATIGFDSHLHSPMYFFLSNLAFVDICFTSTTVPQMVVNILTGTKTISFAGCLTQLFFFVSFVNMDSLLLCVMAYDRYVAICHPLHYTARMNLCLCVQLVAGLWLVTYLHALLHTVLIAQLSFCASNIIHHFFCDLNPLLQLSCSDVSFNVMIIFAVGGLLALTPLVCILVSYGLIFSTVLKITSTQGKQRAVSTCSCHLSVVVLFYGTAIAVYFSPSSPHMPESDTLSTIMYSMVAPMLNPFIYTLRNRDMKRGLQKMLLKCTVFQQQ

OR1N2 = biological target: T5, OR1N2 (Homo sapiens, UniProt Q8NGR9, T287M/V230G/W23R); experiment: OR1N2 cell-based cAMP HTRF assay; details: read-out: OR1N2 % Efficacy
T5 construct: Lucy (cleavable signal peptide) (N); FLAG (N); Rho (first 20 aa of bovine rhodopsin) (N); expressed in transfected cells
T5 sequence (Q8NGR9 1-316 W23R/V230G/T287M): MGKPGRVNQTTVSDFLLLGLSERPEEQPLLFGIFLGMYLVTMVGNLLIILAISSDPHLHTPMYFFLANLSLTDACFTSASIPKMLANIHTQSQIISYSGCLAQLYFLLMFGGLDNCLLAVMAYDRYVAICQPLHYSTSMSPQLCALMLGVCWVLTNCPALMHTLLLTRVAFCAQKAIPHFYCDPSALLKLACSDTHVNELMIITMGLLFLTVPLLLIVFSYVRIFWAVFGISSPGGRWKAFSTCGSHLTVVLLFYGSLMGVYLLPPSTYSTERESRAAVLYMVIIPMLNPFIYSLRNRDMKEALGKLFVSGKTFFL

OR5B12 = biological target: T6, OR5B12 (Homo sapiens, UniProt Q96R08); experiment: OR5B12 cell-based cAMP HTRF assay; details: dose-response; 100% = full agonist
T6 construct: Lucy (cleavable signal peptide) (N); FLAG (N); Rho (first 20 aa of bovine rhodopsin) (N); expressed in transfected cells
T6 sequence (Q96R08 1-314): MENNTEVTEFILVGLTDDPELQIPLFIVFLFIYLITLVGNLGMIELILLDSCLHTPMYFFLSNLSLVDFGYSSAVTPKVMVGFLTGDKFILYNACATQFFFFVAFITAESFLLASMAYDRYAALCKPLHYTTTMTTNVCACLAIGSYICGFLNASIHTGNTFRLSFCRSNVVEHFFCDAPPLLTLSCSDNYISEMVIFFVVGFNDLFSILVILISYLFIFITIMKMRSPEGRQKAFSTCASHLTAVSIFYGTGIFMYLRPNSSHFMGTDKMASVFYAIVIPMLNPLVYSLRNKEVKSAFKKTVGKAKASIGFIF

OR5A1 = biological target: T7, OR5A1 (Homo sapiens, UniProt Q8NGJ0); experiment: OR5A1 cell-based cAMP HTRF assay
T7 construct: Lucy (cleavable signal peptide) (N); FLAG (N); Rho (first 20 aa of bovine rhodopsin) (N); expressed in transfected cells
T7 sequence (Q8NGJ0 1-315): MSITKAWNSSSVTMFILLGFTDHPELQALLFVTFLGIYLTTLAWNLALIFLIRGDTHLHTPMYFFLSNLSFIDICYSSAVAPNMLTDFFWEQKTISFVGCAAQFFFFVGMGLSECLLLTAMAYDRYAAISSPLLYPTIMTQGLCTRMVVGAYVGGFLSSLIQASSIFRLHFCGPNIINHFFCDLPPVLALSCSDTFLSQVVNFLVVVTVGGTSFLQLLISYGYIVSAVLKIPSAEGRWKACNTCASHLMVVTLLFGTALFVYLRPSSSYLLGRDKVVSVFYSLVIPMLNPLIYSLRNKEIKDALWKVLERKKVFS

OR7A17 = biological target: T8, OR7A17 (Homo sapiens, UniProt O14581); experiment: OR7A17 cell-based cAMP HTRF assay; details: FIG. 1
T8 construct: Lucy (cleavable signal peptide) (N); FLAG (N); Rho (first 20 aa of bovine rhodopsin) (N); expressed in transfected cells
T8 sequence (O14581 1-309): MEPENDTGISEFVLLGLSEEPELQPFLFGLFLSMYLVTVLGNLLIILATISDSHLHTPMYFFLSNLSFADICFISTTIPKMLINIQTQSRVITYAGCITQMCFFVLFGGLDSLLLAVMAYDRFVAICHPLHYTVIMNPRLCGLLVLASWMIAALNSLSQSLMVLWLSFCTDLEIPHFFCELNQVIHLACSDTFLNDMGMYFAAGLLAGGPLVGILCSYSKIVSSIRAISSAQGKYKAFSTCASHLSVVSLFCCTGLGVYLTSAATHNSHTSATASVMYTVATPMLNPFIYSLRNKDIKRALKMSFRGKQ

[1] = dose-response, 100% = full agonist

Emax (OR10J5; [1]): 40%
Compound: CC(C)CC1CC(C)(O)CCO1 (stereo not drawn) [Florol, 4-methyl-2-(2-methylpropyl)oxan-4-ol]

Emax (OR5AN1; [1]): 86%
Compound: O=C1CCC=CCCCCCCCCCC1 [Exaltenone, cyclopentadec-4-en-1-one]

OR8D1 % Efficacy (OR8D1): 100%
Compound: CC1=C(O)C(=O)OC1C (stereo not drawn) [Sotolone, 4-hydroxy-2,3-dimethyl-2~{H}-furan-5-one]

Emax (OR1C1): 79%
Compound: CCC(C)(O)CCCC(C)C (stereo not drawn) [Tetralinol, 3,7-dimethyloctan-3-ol]

OR8D1 % Efficacy (OR8D1): 100%
Compound: CCC1OC(=O)C(O)=C1C (stereo not drawn) [Maple Furanone, 2-ethyl-4-hydroxy-3-methyl-2~{H}-furan-5-one]

Emax (OR1N2; [1]): 100%
Compound: O=C1CCCCCCCC=CCCCCCCO1 [Ambrettolide, 1-oxacycloheptadec-10-en-2-one]

Emax (OR1N2; [1]): 59%
Compound: O=C1CCCCCCCCCCCC(=O)OCCO1 [Astrotone, 1,4-dioxacycloheptadecane-5,17-dione]

Emax (OR1C1): 100%
Compound: C=CC(C)(O)CCC=C(C)C (stereo not drawn) [Linalool, 3,7-dimethylocta-1,6-dien-3-ol]

Emax (OR1C1): 95%
Compound: C=CC(C)(O)CCCC(C)C (stereo not drawn) [Dihydrolinalool, 3,7-dimethyloct-1-en-3-ol]

Emax (OR8D1): 76%
Compound: CCCC1CC(=O)C=C(C)C1 (stereo not drawn) [Celery ketone, 3-methyl-5-propylcyclohex-2-en-1-one]

OR5B12 % Efficacy (OR5B12): 98%
Compound: methyl 2-[(1~{S},2~{S})-3-oxo-2-pentylcyclopentyl]acetate; methyl 2-[(1~{R},2~{S})-3-oxo-2-pentylcy clopentyl]acetate [Jasmodione]

Emax (OR8D1): 80%
Compound: CCC=C1OC(=O)c2ccccc21 [Propylidene phthalide, 3-propylidene-2-benzofuran-1-one]

Emax (OR1C1): 99%
Compound: C=CC(C)(O)CCC=C(C)CC (stereo not drawn) [Ethyl Linalool, 3,7-dimethylnona-1,6-dien-3-ol]

OR10J5 % Efficacy (OR10J5; [1]): 100%
Compound: methyl 2-[[3-(4-hydroxy-4-methylpentyl)cyclohex-3-en-1-ylidene]methylamino]benzoate; methyl 2-[[4-(4-hydroxy-4-methylpentyl)cyclohex-3 -en-1-ylidene]methylamino]benzoate [Lyronol 50 dipg]

Compound: Cc1c([N+](=O)[O-])c(C)c([N+](=O)[O-])c(C(C)(C)C)c1[N+](=O)[O-] [Musk xylol, 1-~{tert}-butyl-3,5-dimethyl-2,4,6-trinitrobenzene]
OR5AN1 % Efficacy (OR5AN1): 97%

Emax (OR5AN1; [1]): 75%
Compound: C[C@@H]1CCCCCCCCCCCCC(=O)C1 [Muscone, (R)-3-methylcyclopentadecanone]

Emax (OR10J5; [1]): 58%
Compound: Cc1ccc2c(c1)CC(C)(CO)C2 (stereo not drawn) [Lilyflore, (2,5-dimethyl-1,3-dihydroinden-2-yl)methanol]

Compound: CC(=O)c1c(C)c([N+](=O)[O-])c(C(C)(C)C)c([N+](=O)[O-])c1C [Musk ketone, 1-(4-~{tert}-butyl-2,6-dimethyl-3,5-dinitrophenyl)ethanone]
Emax (OR5AN1; [1]): 100%

activation of OR5A1 (violet tonality) (OR5A1; FIG. 1): activation
Emax (OR5A1; dose-response, 100% = full agonist, read-out: OR5A1 % Efficacy): 100%
activation of OR7A17 (blonde woody tonality) (OR7A17): activation
Compound: CC(=O)C=CC1=C(C)CCCC1(C)C [Beta-ionone, 4-(2,6,6-trimethylcyclohexen-1-yl)but-3-en-2-one]

Emax (OR10J5; [1]): 96%
Compound: CC(=CCCC=O)CCCC(C)(C)O [Mahonial, 9-hydroxy-5,9-dimethyldec-4-enal]

Compound: 3-methylcyclopentadec-4-en-1-one; 3-methylcyclopentadec-5-en-1-one [Muscenone delta]
OR5AN1 % Efficacy (OR5AN1; [1]): 86%

Compound: CCCCC[C@@H]1C(=O)CC[C@@H]1CC(=O)OC [Hedione, methyl 2-[(1~{R},2~{S})-3-oxo-2-pentylcyclopentyl]acetate]
OR5B12 % Efficacy (OR5B12): 86%

Compound: CC(C)(O)CCCC1=CCC(C=O)CC1 (stereo not drawn) [Lyral, 3-(4-hydroxy-4-methylpentyl)cyclohex-3-ene-1-carbaldehyde; 4-(4-hydroxy-4-methylpentyl)cyclohex-3-ene-1-carbaldehyde]
Emax (OR10J5): 100%

Emax (OR8D1): 97%
Compound: CC1=C(O)C(=O)CC1 [Cyclotone, 2-hydroxy-3-methylcyclopent-2-en-1-one]

Compound: O=C1CCCCCCCC=CCCCCCCC1 [Civetone, cycloheptadec-9-en-1-one]
Emax (OR1N2): 94%
